We go through one substance from patent US9079936B2, “Derivatives of APF and methods of use” (University of Maryland, Baltimore, priority 2007, dated 2015).

Assay [1] deals with normal human bladder epithelial cells. Nature of the assay: 3H-thymidine incorporation into explanted normal human bladder epithelial cells. The format is cell-based. The procedure:
Cell proliferation was measured by ^3H-thymidine incorporation into explanted normal human bladder epithelial cells, as previously described (Keay et al., 2001; Keay et al., 2000; Keay et al., 2003a; Keay et al., 2003b; Keay et al., 1996). Briefly, purified native or synthetic APF (or the appropriate mock preparation) was diluted in serum-free MEM (containing only glutamine and antibiotics/antimycotics) and applied to the cells; cell controls received serum-free MEM alone. Cells were then incubated at 37° C. in a 5% CO2 atmosphere for 48 hours. The cells were then labeled with 1 μCi/well ^3H-thymidine for 4 hours, trypsinized, insoluble cell contents harvested and methanol-fixed onto glass fiber filter paper, and the amount of radioactivity incorporated determined. […]
The present example concerns exemplary comprehensive structure-activity relationship (SAR) studies on the peptide portion of antiproliferative factor (APF). […] Antiproliferative activity of each derivative was determined by inhibition of ^3H-thymidine incorporation in primary normal human bladder epithelial cells.
^3H-Thymidine Incorporation. […] The cell contents harvested and methanol-fixed onto glass fiber filter paper, and the amount of radioactivity incorporated determined. […]
(In general: Uptake of a labelled nucleoside into DNA is a usual measure of proliferation.)

Assay [2] concerns bladder epithelial cells from IC/PBS patients. Nature of the assay: IC/PBS cell proliferation (3H-thymidine incorporation). Format: cell-based, human. The settings on record: for effect on IC cell proliferation: 0.25 uM, 9, 16, 23 and 30 day treatment (Example 12). On the procedure: (§1) IC/PBS cells were incubated with varying concentrations of GalGalNAc-TV(D-proline)AAVVVA (SEQ ID NO:11), wherein such glycosylated peptide is SEQ ID NO:30). Cell proliferation was determined by ^3H-thymidine incorporation; gene expression by quantitative RT-PCR; specific protein expression by Western blot analysis; tight junction formation by confocal immunofluorescence microscopy; and paracellular permeability by ^14C-mannitol and ^3H-inulin flux between confluent cells on Transwell plates. Significance of the difference in mean values between groups was determined by an analysis of variance for each assay.
Study of the effect of APF proline on IC cell proliferation (as measured by thymidine incorporation) following 9, 16, 23, and 30 day treatment with 0.25 uM of the agent.
as §1, with “a derivative shown to inhibit APF activity in normal bladder cells—GalGalNAc-TV-(D-proline)-AAVVVA” for “GalGalNAc-TV(D-proline)AAVVVA”, “NO: 11),” for “NO:11),”, “RT-PCR;” for “RT-PCR; specific protein expression by Western blot analysis;”, “^14H-inulin” for “^3H-inulin”
IC/PBS cells produce APF and as a result have a profound decrease in cell proliferation. […] Cells were treated with 1 nM D-proline APF twice weekly, and thymidine incorporation was determined at 9, 16, 23 and 30 days.
(§2) Cell proliferation was measured by ^3H-thymidine incorporation into explanted normal human bladder epithelial cells, as previously described (Keay et al., 2000; Keay et al., 2001; Keay et al., 2004; Keay et al., 2003; Saitoh et al., 2001). Significant inhibition of ^3H-thymidine incorporation was defined as a mean decrease in counts per minute of greater than 2 standard deviations from the mean of control cells for each plate.

A further assay relates to IC/PBS cell monolayers. Kind of assay: Paracellular permeability assay (14C-mannitol and 3H-inulin flux, Transwell). The settings on record: IC/PBS cells, 16 or 30 days treatment. Format: cell-based, human. On the procedure:
Flux assays were performed using 12-mm Transwell culture plates (Corning Incorporated, Corning, N.Y.), as previously described (Keay et al., 2000). Cells were plated at 4×10^5 cells/cm^2 on the insert and grown in DMEM-F12 medium containing 10% heat-inactivated FBS, 1% antibiotic solution, 1% L-glutamine, 0.25 units/ml insulin (all from Sigma, St. Louis, Mo.), and 5 ng/ml hEGF (R & D Systems, Minneapolis, Minn.) to establish tight monolayers. On day 2, the medium was changed to MEM (GIBCO/Invitrogen) containing 1% antibiotic/antimycotic solution and 1% L-glutamine (Sigma).
Two different membrane impermeable molecules, [^14C]-mannitol (molecular weight: 184 Daltons) and [3H]-inulin (molecular weight: 5,200 Daltons), served as paracellular tracers. At the beginning of the flux assay, both sides of the bathing wells of Transwell filters were replaced with fresh medium containing either 5 mM unlabeled mannitol or 0.5 mM unlabeled inulin. Each tracer was added at a final concentration of 3.6 nM for [^14C]-mannitol and 0.36 nM for [^3H]-inulin to the apical bathing wells. The basal bathing well contained the same medium as the apical compartment but without tracers. Flux assays were performed at 37° C.; basal medium was collected at 0.5-6 hrs after addition of [^14C]-mannitol or [^3H]-inulin, and the amount of radioactivity determined using a Beckman LS 5000 scintillation counter. Results were expressed as percentage of total counts for each tracer.
(§3) For the permeability assay, the percentage of total counts in the basal medium was determined in four experiments (using different IC/PBS cell donors), and expressed as mean±standard deviation. Crossover point analysis was performed for qRT-PCR data, and expression of each gene was quantified relative to β-actin; this value was expressed as mean±standard error of the mean for duplicate runs performed on two separate occasions. ^3H-thymidine incorporation was determined in triplicate on two separate occasions, and the CPM expressed as mean±standard deviation.

Assay [3] has as its system tight junction proteins in IC/PBS cells. Nature of the assay: Immunofluorescence confocal microscopy of tight junction proteins. The conditions noted are these: IC/PBS cell explants treated for 9 days. The format is cell-based, human. On the procedure: For immunofluorescence, cells were fixed using ethanol/acetone (1:1) for 15 minutes at room temperature, washed 3 times with PBS and incubated with fluorescein isothiocyanate (FITC) labeled mouse monoclonal anti-ZO-1 (5 μg/ml); or unlabeled mouse monoclonal anti-occludin (5 μg/ml) or anti-claudin 4 (3 μg/ml); or unlabeled rabbit polyclonal anti-claudin 1 (3 μg/ml), anti-claudin 8 (8 μg/ml), or anti-claudin 12 (5 μg/ml) antibodies (all from Zymed, South San Francisco, Calif.) diluted in PBS for 2 hours at 37 C. Cells incubated with unlabeled mouse monoclonal primary antibodies were then washed 3 times with PBS and further incubated with FITC-labeled secondary goat anti-mouse IgG antibody (Zymed) diluted in PBS, while cells incubated with unlabeled rabbit polyclonal primary antibodies were washed and further incubated for 2 hours at 37 C with goat anti-rabbit IgG (Zymed) diluted in PBS. Following an additional 5 washes with PBS, the cells were examined using an LSM510 confocal laser scanning microscope (Carl Zeiss, Oberkochen, Germany). Negative controls for the method included cells incubated without primary and secondary antibodies as well as cells incubated with secondary antibody alone.

For assay [4], the system named is APF activity in normal bladder epithelial cells. Nature of the assay: Inhibition of APF antiproliferative activity in APF-treated normal bladder cells (3H-thymidine incorporation). The format is cell-based, human. The settings on record: pretreatment with derivative, then active synthetic APF (as-APF), IC/PBS and/or normal bladder cells. The procedure: as §1
as §1, with “a derivative shown to inhibit APF activity in normal bladder cells—GalGalNAc-TV-(D-proline)-AAVVVA” for “GalGalNAc-TV(D-proline)AAVVVA”, “NO: 11),” for “NO:11),”, “RT-PCR;” for “RT-PCR; specific protein expression by Western blot analysis;”, “^14H-inulin” for “^3H-inulin”
as §2

The test system of assay [5] is tight junction protein gene expression in IC/PBS cells. Nature of the assay: qRT-PCR for tight junction gene expression. Format: cell-based, human. The conditions noted are these: 16 and 30 day treatment, relative to β-actin. The procedure:
Total RNA was extracted from IC/PBS and normal control epithelial cell explants using the RNEasy Plus Mini Kit (Qiagen) according to the manufacturer's protocol. Quantitative real time RT-PCR for tight junction gene expression was performed using Quantitect Primers (Qiagen), SYBR Green RT-PCR kit reagents (Qiagen), and a Roche 480 Light-Cycler. Samples were tested in triplicate runs, and specific mRNA levels quantified and compared to mRNA levels for β-actin using LightCycler 480 real-time PCR analysis software (version 1.5).
as §3
In general terms: Real-time PCR tracks product formation cycle by cycle.

Where [6] appears, read: listed as GalGalNAc-TV(D-proline)AAVVVA.
The mark [7] stands for this setting: listed as GalGalNAc-TV-(D-proline)-AAVVVA.

Entries after “also recorded” stand apart in the source; their conditions may differ.

Take “GalGalNAc-TV(D-proline)AAVVVA [D-proline APF]”: the antiproliferative activity entry in assay [1] (3H-thymidine incorporation, normal bladder epithelial cells) is “did not have any intrinsic antiproliferative activity”. In assay [1] (inactive = no significant activity at <25 μM (cut-off limit of the assay)), the “antiproliferative activity normalized to as-APF” value is “inactive”. Further, the “stimulation of IC/PBS cell proliferation” value in assay [2] (1 nM twice weekly, thymidine incorporation at 9, 16, 23 and 30 days (Example 14)) is recorded as “stimulated IC/PBS cell proliferation by Day 16”. Moreover, the “effect on IC cell proliferation” value in assay [2] is on record as “significantly stimulated at both time points”; in assay [2] (listed as APF proline) it was “Optimal stimulation of IC cell proliferation was observed up to the level of normal bladder cell proliferation”. In addition, the “paracellular permeability (14C-mannitol, 3H-inulin)” value with IC/PBS cell monolayers is “normalized; also recorded: significantly decreased paracellular permeability of both tracer molecules”; in the assay with IC/PBS cell monolayers (setting [6]), “decrease permeability of IC/PBS cells”; with IC/PBS cell monolayers (listed as GalGalNAc-TV-(D-Proline)-AAVVVA) it was “significantly decrease permeability of IC/PBS cells”; in the assay with IC/PBS cell monolayers (setting [7]) it was “normalize IC/PBS cell paracellular permeability”. The “tight junction protein expression and localization” value in assay [3] was “also increased”. In addition, the “blocking of APF antiproliferative activity” value in assay [4] is on record as “inhibited this activity in nanomolar concentrations in a dose-dependent manner”; in assay [4] (setting [6]), “blocked APF activity”; in assay [4] (setting [7]), “blocked APF antiproliferative activity; also recorded: blocks APF's inhibitory effects on cell proliferation”. Further, the “tight junction protein mRNA expression” value in assay [5] is “stimulation of tight junction protein expression; also recorded: stimulate mRNA expression for ZO-1, occludin, and specific claudin (1, 4, 8, and 12)”; in assay [5] (setting [6]), “significantly increase zonula occludens-1 and claudin 1, 4 and 8 expression”; in assay [5] (setting [7]), “significantly increased ZO-1, occludin, and claudin 1, 4, 8, and 12 expression”.
